Reference: PubChem BioAssay AID1963980 (Molecular Pharmacology Branch, DTP, NCI, 2024)
One block for each compound: values may come before it.

Test system: 475296-252-R-J1-PDC spheroid viability
Experiment: Anticancer human tumor 475296-252-R-J1-PDC patient-derived rectal carcinoma cell line growth inhibition [PI3K]
Settings: spheroids with HUVEC and MSC; for IC50: curve of first compound; for viability, T/C: stronger effect = lower value
Summary of the method: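 Three cell types, namely tumor cells, endothelial cells and mesenchymal stem cells, formed each spheroid. Combinations with four PI3K inhibitors were screened at clinically achievable concentrations decreasing by half-log, and spheroid viability was recorded.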

[1] = second compound 0.00316 µM, first compound 0.0316 µM
[2] = second compound 0.00316 µM, first compound 0.1 µM
[3] = second compound 0.00316 µM, first compound 0.316 µM
[4] = second compound 0.00316 µM, first compound 1 µM
[5] = second compound 0.00316 µM, first compound 3.16 µM
[6] = second compound 0.00316 µM, first compound 10 µM
[7] = second compound 0.01 µM, first compound 0.0316 µM
[8] = second compound 0.01 µM, first compound 0.1 µM
[9] = second compound 0.01 µM, first compound 0.316 µM
[10] = second compound 0.01 µM, first compound 1 µM
[11] = second compound 0.01 µM, first compound 3.16 µM
[12] = second compound 0.01 µM, first compound 10 µM
[13] = second compound 0.0316 µM, first compound 0.0316 µM
[14] = second compound 0.0316 µM, first compound 0.1 µM
[15] = second compound 0.0316 µM, first compound 0.316 µM
[16] = second compound 0.0316 µM, first compound 1 µM
[17] = second compound 0.0316 µM, first compound 3.16 µM
[18] = second compound 0.0316 µM, first compound 10 µM
[19] = second compound 0.1 µM, first compound 0.0316 µM
[20] = second compound 0.1 µM, first compound 0.1 µM
[21] = second compound 0.1 µM, first compound 0.316 µM
[22] = second compound 0.1 µM, first compound 1 µM
[23] = second compound 0.1 µM, first compound 3.16 µM
[24] = second compound 0.1 µM, first compound 10 µM
[25] = second compound 0.316 µM, first compound 0.0316 µM
[26] = second compound 0.316 µM, first compound 0.1 µM
[27] = second compound 0.316 µM, first compound 0.316 µM
[28] = second compound 0.316 µM, first compound 1 µM
[29] = second compound 0.316 µM, first compound 3.16 µM
[30] = second compound 0.316 µM, first compound 10 µM
[31] = second compound 1 µM, first compound 0.0316 µM
[32] = second compound 1 µM, first compound 0.1 µM
[33] = second compound 1 µM, first compound 0.316 µM
[34] = second compound 1 µM, first compound 1 µM
[35] = second compound 1 µM, first compound 3.16 µM
[36] = second compound 1 µM, first compound 10 µM
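Also: spheroids exposed to agents for seven days before readout.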

- IC50 (second compound 0.00316 µM): > 10 µM
- IC50 (second compound 0.01 µM): > 10 µM
- IC50 (second compound 0.0316 µM): > 10 µM
- IC50 (second compound 0.1 µM): 9.51 µM
- IC50 (second compound 0.316 µM): 1.75 µM
- IC50 (second compound 1 µM): 0.828 µM
SMILES: C#Cc1c(F)ccc2cc(O)cc(-c3ncc4c(N5CC6CCC(C5)N6)nc(OCC56CCCN5CC(F)C6)nc4c3F)c12 (stereo unspecified) + CC(Nc1ccc2c(c1)OCCn1cc(N3C(=O)OCC3C(F)F)nc1-2)C(N)=O
- viability, T/C [1]: 104%
- viability, T/C [2]: 78.2%
- viability, T/C [3]: 87.1%
- viability, T/C [4]: 74.6%
- viability, T/C [5]: 67.5%
- viability, T/C [6]: 67%
- viability, T/C [7]: 98.6%
- viability, T/C [8]: 83%
- viability, T/C [9]: 85.3%
- viability, T/C [10]: 73.1%
- viability, T/C [11]: 75.1%
- viability, T/C [12]: 59.1%
- viability, T/C [13]: 94.2%
- viability, T/C [14]: 87.2%
- viability, T/C [15]: 77.6%
- viability, T/C [16]: 73.8%
- viability, T/C [17]: 73.3%
- viability, T/C [18]: 59.2%
- viability, T/C [19]: 89%
- viability, T/C [20]: 94.6%
- viability, T/C [21]: 74.3%
- viability, T/C [22]: 72.1%
- viability, T/C [23]: 61.1%
- viability, T/C [24]: 49%
- viability, T/C [25]: 78.2%
- viability, T/C [26]: 87.7%
- viability, T/C [27]: 86.6%
- viability, T/C [28]: 61.3%
- viability, T/C [29]: 36.5%
- viability, T/C [30]: 18.1%
- viability, T/C [31]: 92.1%
- viability, T/C [32]: 75.1%
- viability, T/C [33]: 67.4%
- viability, T/C [34]: 52.8%
- viability, T/C [35]: 16.9%
- viability, T/C [36]: 9.3%

- IC50 (second compound 0.00316 µM): > 10 µM
- IC50 (second compound 0.01 µM): > 10 µM
- IC50 (second compound 0.0316 µM): > 10 µM
- IC50 (second compound 0.1 µM): > 10 µM
- IC50 (second compound 0.316 µM): > 10 µM
- IC50 (second compound 1 µM): > 10 µM
SMILES: CC1(C)CCC(Nc2ncc(C(F)(F)F)c(-c3c[nH]c4c(P(C)(C)=O)c(C#N)ccc34)n2)CN1 (stereo unspecified) + CC(Nc1ccc2c(c1)OCCn1cc(N3C(=O)OCC3C(F)F)nc1-2)C(N)=O
- viability, T/C [1]: 96.4%
- viability, T/C [2]: 86.1%
- viability, T/C [3]: 98.4%
- viability, T/C [4]: 116%
- viability, T/C [5]: 174%
- viability, T/C [6]: 73.9%
- viability, T/C [7]: 94.5%
- viability, T/C [8]: 81.3%
- viability, T/C [9]: 116%
- viability, T/C [10]: 136%
- viability, T/C [11]: 203%
- viability, T/C [12]: 82.8%
- viability, T/C [13]: 91.2%
- viability, T/C [14]: 99.7%
- viability, T/C [15]: 96.9%
- viability, T/C [16]: 136%
- viability, T/C [17]: 187%
- viability, T/C [18]: 77.1%
- viability, T/C [19]: 96.6%
- viability, T/C [20]: 103%
- viability, T/C [21]: 106%
- viability, T/C [22]: 136%
- viability, T/C [23]: 170%
- viability, T/C [24]: 72.9%
- viability, T/C [25]: 82.9%
- viability, T/C [26]: 92.5%
- viability, T/C [27]: 104%
- viability, T/C [28]: 111%
- viability, T/C [29]: 147%
- viability, T/C [30]: 66.5%
- viability, T/C [31]: 94.7%
- viability, T/C [32]: 88.4%
- viability, T/C [33]: 96.4%
- viability, T/C [34]: 105%
- viability, T/C [35]: 113%
- viability, T/C [36]: 63.1%

- IC50 (second compound 0.0316 µM): > 3 µM
- IC50 (second compound 0.1 µM): > 3 µM
- IC50 (second compound 0.316 µM): > 3 µM
- IC50 (second compound 1 µM): 2.91 µM
- IC50 (second compound 3.16 µM): 2.12 µM
- IC50 (second compound 10 µM): 1.21 µM
SMILES: Cn1cnc2c(F)c(Nc3ccc(Br)cc3Cl)c(C(=O)NOCCO)cc21 + CC(Nc1ncnc2nc[nH]c12)c1cc2cccc(Cl)c2c(=O)n1-c1ccccc1
- viability, T/C (second compound 0.0316 µM, first compound 0.00949 µM): 84.4%
- viability, T/C (second compound 0.0316 µM, first compound 0.03 µM): 84.9%
- viability, T/C (second compound 0.0316 µM, first compound 0.0949 µM): 81.6%
- viability, T/C (second compound 0.0316 µM, first compound 0.3 µM): 70.5%
- viability, T/C (second compound 0.0316 µM, first compound 0.949 µM): 63.1%
- viability, T/C (second compound 0.0316 µM, first compound 3 µM): 53.9%
- viability, T/C (second compound 0.1 µM, first compound 0.00949 µM): 95.8%
- viability, T/C (second compound 0.1 µM, first compound 0.03 µM): 85.5%
- viability, T/C (second compound 0.1 µM, first compound 0.0949 µM): 93.3%
- viability, T/C (second compound 0.1 µM, first compound 0.3 µM): 73.5%
- viability, T/C (second compound 0.1 µM, first compound 0.949 µM): 66.6%
- viability, T/C (second compound 0.1 µM, first compound 3 µM): 55.7%
- viability, T/C (second compound 0.316 µM, first compound 0.00949 µM): 90.7%
- viability, T/C (second compound 0.316 µM, first compound 0.03 µM): 92.9%
- viability, T/C (second compound 0.316 µM, first compound 0.0949 µM): 86.5%
- viability, T/C (second compound 0.316 µM, first compound 0.3 µM): 74.8%
- viability, T/C (second compound 0.316 µM, first compound 0.949 µM): 76.3%
- viability, T/C (second compound 0.316 µM, first compound 3 µM): 51.5%
- viability, T/C (second compound 1 µM, first compound 0.00949 µM): 95.7%
- viability, T/C (second compound 1 µM, first compound 0.03 µM): 95.7%
- viability, T/C (second compound 1 µM, first compound 0.0949 µM): 81.4%
- viability, T/C (second compound 1 µM, first compound 0.3 µM): 68.2%
- viability, T/C (second compound 1 µM, first compound 0.949 µM): 67.3%
- viability, T/C (second compound 1 µM, first compound 3 µM): 48.1%
- viability, T/C (second compound 3.16 µM, first compound 0.00949 µM): 94.2%
- viability, T/C (second compound 3.16 µM, first compound 0.03 µM): 92.9%
- viability, T/C (second compound 3.16 µM, first compound 0.0949 µM): 76%
- viability, T/C (second compound 3.16 µM, first compound 0.3 µM): 68.3%
- viability, T/C (second compound 3.16 µM, first compound 0.949 µM): 62.5%
- viability, T/C (second compound 3.16 µM, first compound 3 µM): 44.9%
- viability, T/C (second compound 10 µM, first compound 0.00949 µM): 100%
- viability, T/C (second compound 10 µM, first compound 0.03 µM): 95%
- viability, T/C (second compound 10 µM, first compound 0.0949 µM): 73.2%
- viability, T/C (second compound 10 µM, first compound 0.3 µM): 59.9%
- viability, T/C (second compound 10 µM, first compound 0.949 µM): 59.6%
- viability, T/C (second compound 10 µM, first compound 3 µM): 38.3%
